Target: T1, BT2970 (Bacteroides thetaiotaomicron, UniProt Q8A3I4)
T1 sequence (Q8A3I4 30-484): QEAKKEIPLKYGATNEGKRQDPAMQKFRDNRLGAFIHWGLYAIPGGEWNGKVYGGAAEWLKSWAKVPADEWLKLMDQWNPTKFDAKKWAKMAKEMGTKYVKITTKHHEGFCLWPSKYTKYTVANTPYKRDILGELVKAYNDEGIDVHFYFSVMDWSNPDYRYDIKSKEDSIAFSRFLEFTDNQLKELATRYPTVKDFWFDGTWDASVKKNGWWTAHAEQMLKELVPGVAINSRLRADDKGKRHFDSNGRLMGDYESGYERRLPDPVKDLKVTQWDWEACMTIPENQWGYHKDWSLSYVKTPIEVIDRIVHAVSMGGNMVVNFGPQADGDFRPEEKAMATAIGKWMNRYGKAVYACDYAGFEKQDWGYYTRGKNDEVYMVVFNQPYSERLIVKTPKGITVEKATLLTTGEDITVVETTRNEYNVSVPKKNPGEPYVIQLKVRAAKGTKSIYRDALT
Assay: enzyme inhibition
Assay type: biochemical

Compound | Ki
C[C@@H]1O/C(=N\OC(=O)Nc2ccccc2)[C@@H](O)[C@H](O)[C@@H]1O [compound 39, 39] | 121 ± 24 µM

Target: T2, bFUCA1 (Bos taurus, UniProt Q2KIM0)
T2 sequence (Q2KIM0 23-468): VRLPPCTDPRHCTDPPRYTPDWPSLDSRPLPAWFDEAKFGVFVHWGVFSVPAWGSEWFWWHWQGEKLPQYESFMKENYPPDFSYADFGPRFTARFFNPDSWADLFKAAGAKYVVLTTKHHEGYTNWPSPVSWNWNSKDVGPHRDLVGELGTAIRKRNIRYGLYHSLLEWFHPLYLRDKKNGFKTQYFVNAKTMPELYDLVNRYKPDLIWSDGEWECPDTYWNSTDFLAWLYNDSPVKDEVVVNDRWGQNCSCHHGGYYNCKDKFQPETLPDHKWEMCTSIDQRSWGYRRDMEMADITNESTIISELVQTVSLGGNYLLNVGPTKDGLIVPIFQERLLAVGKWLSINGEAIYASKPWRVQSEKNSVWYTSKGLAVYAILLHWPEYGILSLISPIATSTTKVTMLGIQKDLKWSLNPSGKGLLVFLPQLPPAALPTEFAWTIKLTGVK
Assay: enzyme inhibition assay with 4-nitrophenyl α-L-fucopyranoside
Assay type: biochemical

Ki | Compound
7.5 ± 0.4 µM | CCCCc1ccc(NC(=O)ON=C2O[C@@H](C)[C@@H](O)[C@@H](O)[C@@H]2O)cc1 [compound 42, 42]
9.5 ± 0.9 µM | COc1ccc(NC(=O)ON=C2O[C@@H](C)[C@@H](O)[C@@H](O)[C@@H]2O)cc1 [compound 41, 41]
4.8 ± 0.5 µM | CCCCCCCCCCc1ccc(NC(=O)ON=C2O[C@@H](C)[C@@H](O)[C@@H](O)[C@@H]2O)cc1 [compound 43, 43]
11 ± 1 µM | C[C@@H]1O/C(=N\OC(=O)Nc2ccccc2)[C@@H](O)[C@H](O)[C@@H]1O [compound 39, 39]
85 ± 4 µM | C[C@@H]1OC(=NOC(=O)Nc2ccc(Br)cc2)[C@@H](O)[C@H](O)[C@@H]1O [compound 40, 40]

Second part, the molecule before the results:

Compound | Ki
CCCCNC(=O)ON=C1O[C@@H](C)[C@@H](O)[C@@H](O)[C@@H]1O [compound 31, 31] | 172 ± 7 µM
C=CCNC(=O)ON=C1O[C@@H](C)[C@@H](O)[C@@H](O)[C@@H]1O [compound 30, 30] | 175 ± 6 µM
C[C@@H]1OC(=NO)[C@@H](O)[C@H](O)[C@@H]1O [compound 12, 1,5-hydroximolactone 12] | 323 ± 12 µM
C[C@@H]1OC(=NOC(=O)NC(C)(C)C)[C@@H](O)[C@H](O)[C@@H]1O [compound 34, 34] | 440 ± 9 µM
C[C@@H]1OC(=NOC(=O)NC2CCCC2)[C@@H](O)[C@H](O)[C@@H]1O [compound 37, 37] | 325 ± 8 µM
C[C@@H]1OC(=NOC(=O)NC2CC2)[C@@H](O)[C@H](O)[C@@H]1O [compound 35, 35] | 184 ± 6 µM
C[C@@H]1OC(=NOC(=O)NC2CCC2)[C@@H](O)[C@H](O)[C@@H]1O [compound 36, 36] | 220 ± 12 µM
CCCNC(=O)ON=C1O[C@@H](C)[C@@H](O)[C@@H](O)[C@@H]1O [compound 29, 29] | 190 ± 11 µM
CC(C)NC(=O)ON=C1O[C@@H](C)[C@@H](O)[C@@H](O)[C@@H]1O [compound 33, 33] | 320 ± 12 µM
CCCCCCNC(=O)ON=C1O[C@@H](C)[C@@H](O)[C@@H](O)[C@@H]1O [compound 32, 32] | 143 ± 8 µM

Reference: publication PMC6589914 (Chembiochem, 2019)
